# Results reported in PubChem BioAssay AID2060882 (Molecular Pharmacology Branch, DTP, NCI, 2025).
# Tested on: 898857-211-R-J1-PDC complex spheroids, growth % test/control
# Test: Anticancer human tumor 898857-211-R-J1-PDC patient-derived melanoma cell line growth inhibition [RAS]
# Details: for IC50: curve of first compound; for viability, T/C: stronger effect = lower value
# Outline: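 Multi-cell-type spheroids: tumor cells plus HUVEC endothelial cells and mesenchymal stem cells. RAS-pathway inhibitors were combined with targeted agents, each dosed in half-log steps down from clinical Cmax, or from 10 microM when Cmax was unknown.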
# [1] = second compound 0.00316 µM, first compound 0.00316 µM
# [2] = second compound 0.00316 µM, first compound 0.01 µM
# [3] = second compound 0.00316 µM, first compound 0.0316 µM
# [4] = second compound 0.00316 µM, first compound 0.1 µM
# [5] = second compound 0.00316 µM, first compound 0.316 µM
# [6] = second compound 0.00316 µM, first compound 1 µM
# [7] = second compound 0.01 µM, first compound 0.00316 µM
# [8] = second compound 0.01 µM, first compound 0.01 µM
# [9] = second compound 0.01 µM, first compound 0.0316 µM
# [10] = second compound 0.01 µM, first compound 0.1 µM
# [11] = second compound 0.01 µM, first compound 0.316 µM
# [12] = second compound 0.01 µM, first compound 1 µM
# [13] = second compound 0.0316 µM, first compound 0.00316 µM
# [14] = second compound 0.0316 µM, first compound 0.01 µM
# [15] = second compound 0.0316 µM, first compound 0.0316 µM
# [16] = second compound 0.0316 µM, first compound 0.1 µM
# [17] = second compound 0.0316 µM, first compound 0.316 µM
# [18] = second compound 0.0316 µM, first compound 1 µM
# [19] = second compound 0.1 µM, first compound 0.00316 µM
# [20] = second compound 0.1 µM, first compound 0.01 µM
# [21] = second compound 0.1 µM, first compound 0.0316 µM
# [22] = second compound 0.1 µM, first compound 0.1 µM
# [23] = second compound 0.1 µM, first compound 0.316 µM
# [24] = second compound 0.1 µM, first compound 1 µM
# [25] = second compound 0.316 µM, first compound 0.00316 µM
# [26] = second compound 0.316 µM, first compound 0.01 µM
# [27] = second compound 0.316 µM, first compound 0.0316 µM
# [28] = second compound 0.316 µM, first compound 0.1 µM
# [29] = second compound 0.316 µM, first compound 0.316 µM
# [30] = second compound 0.316 µM, first compound 1 µM
# [31] = second compound 1 µM, first compound 0.00316 µM
# [32] = second compound 1 µM, first compound 0.01 µM
# [33] = second compound 1 µM, first compound 0.0316 µM
# [34] = second compound 1 µM, first compound 0.1 µM
# [35] = second compound 1 µM, first compound 0.316 µM
# [36] = second compound 1 µM, first compound 1 µM
# 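Also: spheroids exposed to compound for seven days before readout.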
# 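For viability, T/C in this document: 100% = DMSO vehicle control wells.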
compound,measurement,setting,value
CC1(C)CCC(Nc2ncc(C(F)(F)F)c(-c3c[nH]c4c(P(C)(C)=O)c(C#N)ccc34)n2)CN1 (stereo unspecified) + C#Cc1c(F)ccc2cc(O)cc(-c3ncc4c(N5CC6CCC(C5)N6)nc(OCC56CCCN5CC(F)C6)nc4c3F)c12,IC50,second compound 0.0316 µM,4.05 nM
same,IC50,second compound 0.1 µM,5.69 nM
same,IC50,second compound 0.316 µM,5.3 nM
same,IC50,second compound 1 µM,5.82 nM
same,IC50,second compound 3.16 µM,5.41 nM
same,IC50,second compound 10 µM,2.06 nM
same,"viability, T/C","second compound 0.0316 µM, first compound 0.000949 µM",99.2%
same,"viability, T/C","second compound 0.0316 µM, first compound 0.003 µM",56.7%
same,"viability, T/C","second compound 0.0316 µM, first compound 0.00949 µM",30.9%
same,"viability, T/C","second compound 0.0316 µM, first compound 0.03 µM",22%
same,"viability, T/C","second compound 0.0316 µM, first compound 0.0949 µM",19.6%
same,"viability, T/C","second compound 0.0316 µM, first compound 0.3 µM",17.6%
same,"viability, T/C","second compound 0.1 µM, first compound 0.000949 µM",92.2%
same,"viability, T/C","second compound 0.1 µM, first compound 0.003 µM",66.7%
same,"viability, T/C","second compound 0.1 µM, first compound 0.00949 µM",35.4%
same,"viability, T/C","second compound 0.1 µM, first compound 0.03 µM",26.7%
same,"viability, T/C","second compound 0.1 µM, first compound 0.0949 µM",18.4%
same,"viability, T/C","second compound 0.1 µM, first compound 0.3 µM",17.5%
same,"viability, T/C","second compound 0.316 µM, first compound 0.000949 µM",91.3%
same,"viability, T/C","second compound 0.316 µM, first compound 0.003 µM",63.7%
same,"viability, T/C","second compound 0.316 µM, first compound 0.00949 µM",34.5%
same,"viability, T/C","second compound 0.316 µM, first compound 0.03 µM",28.1%
same,"viability, T/C","second compound 0.316 µM, first compound 0.0949 µM",20.4%
same,"viability, T/C","second compound 0.316 µM, first compound 0.3 µM",18.2%
same,"viability, T/C","second compound 1 µM, first compound 0.000949 µM",86.7%
same,"viability, T/C","second compound 1 µM, first compound 0.003 µM",66.1%
same,"viability, T/C","second compound 1 µM, first compound 0.00949 µM",37.7%
same,"viability, T/C","second compound 1 µM, first compound 0.03 µM",24.4%
same,"viability, T/C","second compound 1 µM, first compound 0.0949 µM",20.6%
same,"viability, T/C","second compound 1 µM, first compound 0.3 µM",17.1%
same,"viability, T/C","second compound 3.16 µM, first compound 0.000949 µM",87%
same,"viability, T/C","second compound 3.16 µM, first compound 0.003 µM",64.4%
same,"viability, T/C","second compound 3.16 µM, first compound 0.00949 µM",34.7%
same,"viability, T/C","second compound 3.16 µM, first compound 0.03 µM",28.9%
same,"viability, T/C","second compound 3.16 µM, first compound 0.0949 µM",19.7%
same,"viability, T/C","second compound 3.16 µM, first compound 0.3 µM",19.1%
same,"viability, T/C","second compound 10 µM, first compound 0.000949 µM",68.7%
same,"viability, T/C","second compound 10 µM, first compound 0.003 µM",40.4%
same,"viability, T/C","second compound 10 µM, first compound 0.00949 µM",25.2%
same,"viability, T/C","second compound 10 µM, first compound 0.03 µM",24.3%
same,"viability, T/C","second compound 10 µM, first compound 0.0949 µM",15.3%
same,"viability, T/C","second compound 10 µM, first compound 0.3 µM",13.2%
C=CC(=O)Nc1cc(Nc2nccc(-c3cn(C)c4ccccc34)n2)c(OC)cc1N(C)CCN(C)C + C=CC(=O)N1CCN(c2nc(OCC3CCCN3C)nc3c(F)c(-c4nc(N)cc(C)c4C(F)(F)F)c(Cl)cc23)C(C)C1,IC50,second compound 0.00316 µM,940 nM
same,IC50,second compound 0.01 µM,> 1000 nM
same,IC50,second compound 0.0316 µM,> 1000 nM
same,IC50,second compound 0.1 µM,962 nM
same,IC50,second compound 0.316 µM,> 1000 nM
same,IC50,second compound 1 µM,870 nM
same,"viability, T/C",[1],98.9%
same,"viability, T/C",[2],98.9%
same,"viability, T/C",[3],116%
same,"viability, T/C",[4],101%
same,"viability, T/C",[5],92.6%
same,"viability, T/C",[6],47.5%
same,"viability, T/C",[7],102%
same,"viability, T/C",[8],105%
same,"viability, T/C",[9],93%
same,"viability, T/C",[10],100%
same,"viability, T/C",[11],96.5%
same,"viability, T/C",[12],54.4%
same,"viability, T/C",[13],104%
same,"viability, T/C",[14],103%
same,"viability, T/C",[15],104%
same,"viability, T/C",[16],107%
same,"viability, T/C",[17],93.6%
same,"viability, T/C",[18],58.4%
same,"viability, T/C",[19],105%
same,"viability, T/C",[20],105%
same,"viability, T/C",[21],117%
same,"viability, T/C",[22],106%
same,"viability, T/C",[23],98%
same,"viability, T/C",[24],48.2%
same,"viability, T/C",[25],114%
same,"viability, T/C",[26],112%
same,"viability, T/C",[27],116%
same,"viability, T/C",[28],108%
same,"viability, T/C",[29],93.8%
same,"viability, T/C",[30],53.7%
same,"viability, T/C",[31],118%
same,"viability, T/C",[32],120%
same,"viability, T/C",[33],124%
same,"viability, T/C",[34],114%
same,"viability, T/C",[35],97.7%
same,"viability, T/C",[36],43.4%
O=C(c1ccc(F)c(F)c1Nc1ccc(I)cc1F)N1CC(O)([C@@H]2CCCCN2)C1 + C=CC(=O)N1CCN(c2nc(OCC3CCCN3C)nc3c(F)c(-c4nc(N)cc(C)c4C(F)(F)F)c(Cl)cc23)C(C)C1,IC50,second compound 0.00316 µM,5.18 nM
same,IC50,second compound 0.01 µM,3.43 nM
same,IC50,second compound 0.0316 µM,4.61 nM
same,IC50,second compound 0.1 µM,5.75 nM
same,IC50,second compound 0.316 µM,6.85 nM
same,IC50,second compound 1 µM,8.71 nM
same,"viability, T/C",[1],60.9%
same,"viability, T/C",[2],33.6%
same,"viability, T/C",[3],28.4%
same,"viability, T/C",[4],21.8%
same,"viability, T/C",[5],18.9%
same,"viability, T/C",[6],16.4%
same,"viability, T/C",[7],50.9%
same,"viability, T/C",[8],38.3%
same,"viability, T/C",[9],26.4%
same,"viability, T/C",[10],19.6%
same,"viability, T/C",[11],15.8%
same,"viability, T/C",[12],16%
same,"viability, T/C",[13],56.3%
same,"viability, T/C",[14],38%
same,"viability, T/C",[15],23.6%
same,"viability, T/C",[16],23.6%
same,"viability, T/C",[17],19.1%
same,"viability, T/C",[18],15.3%
same,"viability, T/C",[19],60.6%
same,"viability, T/C",[20],39.7%
same,"viability, T/C",[21],28%
same,"viability, T/C",[22],21.5%
same,"viability, T/C",[23],17.6%
same,"viability, T/C",[24],14%
same,"viability, T/C",[25],58.1%
same,"viability, T/C",[26],46.9%
same,"viability, T/C",[27],33.4%
same,"viability, T/C",[28],25.4%
same,"viability, T/C",[29],19.1%
same,"viability, T/C",[30],14.4%
same,"viability, T/C",[31],73.2%
same,"viability, T/C",[32],40.8%
same,"viability, T/C",[33],38.6%
same,"viability, T/C",[34],23.5%
same,"viability, T/C",[35],18.1%
same,"viability, T/C",[36],14.5%
